Test results from patent publication US20050191612A1, “Method of screening insulin content enhancer” (priority 2002, published 2005).

How the values were obtained:
[1] = tested on: insulin promoter activity in mouse pancreatic β cell line NIT1 cells; assay: Insulin promoter reporter (plasmid InsPro) luciferase activity in NIT1 cells; assay type: cell-based; settings: compound 30 μmol/L, treatment 31 hours, p<0.01
Experimental: A transfection reagent (LIPOFECTAMINE 2000; GIBCO BRL, or FuGENE6; Boeringer Mannheim) was used to introduce plasmid InsPro (1-10 ng) prepared in Example 2 to mouse pancreatic β cell line NIT1 cells (4×10^4 cells). The trasfected cells were seeded on a 96-well plate. A Dulbecco modified Eagles' medium (DMEM) or F-12 medium containing 10% fetal calf serum (FCS) was used as a medium. After the seeding, the cells were cultured for 18-20 hours. […] After the medium was aspirated, the cells were lysed with a cell lysing solution (cell lysis buffer LCβ; Toyo Ink Mfg.). A luciferase activity of each lysate was measured by a commercially available measuring kit (PicaGene Luminescent kit; Toyo Ink Mfg.) and a measuring apparatus (ML3000 microtiter plate luminometer; Dynatech Laboratories). […] Further, where the above procedure is repeated except for using a cell not expressing the polypeptide for a screening tool, as a control cell, instead of the cell for a screening tool, when the insulin promoter reporter activity is not increased in the control cell, it can be judged that such a test substance can activate the polypeptide consisting of the amino acid sequence of SEQ ID NO: 2.
Next, compounds A-E were evaluated in a manner similar to that described in Example 5. More particularly, a 96-well plate coated with collagen was used as the 96-well plate, and DMEM was used as the medium. […]

[2] = tested on: GK (Goto-Kakizaki) rats (type II diabetes models); assay: Glucose tolerance test for GK (Goto-Kakizaki) rats by one oral dose; assay type: in vivo, rat; settings: 100 mg/kg orally, at 30 and 60 minutes after glucose administration
Experimental: (§1) SD rats (4 weeks old; CLEA JAPAN) were made to fast overnight, and 2 g/kg of glucose was orally administered. Compound A (100 mg/kg) had been intraperitoneally administered 5 minutes before the glucose administration. An appropriate amount of blood was taken at 0 minute, 30 minutes, 60 minutes, and 120 minutes after the glucose administration, and used for the measurement of a blood glucose level and a concentration of plasma insulin.
(§2) For measuring the blood glucose level, a supernatant obtained by mixing blood and 0.33 mol/L perchloric acid (blood:0.33 mol/L perchloric acid=1:10) and centrifuging the mixture (3000×g, 10 minutes, 4° C.) was used. For measuring the concentration of plasma insulin, a supernatant obtained by centrifuging blood (3000×g, 10 minutes, 4° C.) was used. Further, Glucose C test Wako (Wako) was used in the measurement of the blood glucose level, and a rat insulin assay system (Amersham) was used in the measurement of the concentration of plasma insulin.
Then, a glucose tolerance test for GK (Goto-Kakizaki) rats (type II diabetes models with incomplete insulin secretion; 7 weeks old; Charles River Japan) by one oral dose was carried out. The GK rat line was established by selectively mating wistar rats in accordance with an index of a poor tolerance in an oral glucose tolerance test, by Yoshio Goto, et al., School of Medicine, Tohoku University, in 1975. […]

SD rats = assay: Glucose tolerance test for SD rats by one oral dose; assay type: in vivo, rat; settings: 100 mg/kg intraperitoneally 5 min before 2 g/kg oral glucose, at 30 minutes, p<0.05
Experimental: as §1, §2
FIG. 4 illustrates a time course of the concentration of plasma insulin (unit=ng/mL) after the oral administration of glucose, and FIG. 5 illustrates a time course of the blood glucose level (unit=mg/dL) after the oral administration of glucose. The mark “*” in FIGS. 4 and 5 denotes that a significant difference from the group to which compound A had not been administered was p<0.05 (Student's t-test).

SMILES: S=C(OCCc1ccncc1)c1ccccc1 [compound A, 2-(pyridine-4-yl)ethyl thiobenzoate]
- increased value of the reporter activity with respect to control group [1]: ≥ 1.5 times
- increase of the blood glucose level by the glucose administration [2]: significantly suppressed
- concentration of plasma insulin after glucose administration (SD rats): significant increase
- increase of the blood glucose level by the glucose administration (SD rats): significantly suppressed
